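1) Cells in 96-well plates. 2) Compound, 48 h, 5 concentrations. 3) Linear interpolation between surrounding doses. 4) Unreached endpoint = highest concentration. Abbreviation: GI50, concentration required for 50% inhibition of growth. TGI denotes the concentration required for complete inhibition of growth.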
Experiments:
Test in all cases: NCI anticancer screen, dose series, 48 h
[1] = tested on: 786-0 renal
[2] = tested on: A498 renal
[3] = tested on: A549 NSCLC
[4] = tested on: ACHN renal
[5] = tested on: BT-549 breast
[6] = tested on: CAKI-1 renal
[7] = tested on: CCRF-CEM leukemia
[8] = tested on: COLO 205 colon
[9] = tested on: DU-145 prostate
[10] = tested on: HCC-2998 colon
[11] = tested on: HCT-116 colon
[12] = tested on: HCT-15 colon
[13] = tested on: HL-60(TB) leukemia
[14] = tested on: HOP-62 NSCLC
[15] = tested on: HOP-92 NSCLC
[16] = tested on: HS 578T breast
[17] = tested on: HT29 colon
[18] = tested on: IGROV1 ovarian
[19] = tested on: K-562 leukemia
[20] = tested on: KM12 colon
[21] = tested on: LOX IMVI melanoma
[22] = tested on: M14 melanoma
[23] = tested on: MALME-3M melanoma
[24] = tested on: MCF7 breast
[25] = tested on: MDA-MB-231 breast
[26] = tested on: MDA-MB-435
[27] = tested on: MOLT-4 leukemia
[28] = tested on: NCI-H226 lung

## CCN(Cc1cccnc1)c1ccc(CO)c(Cl)c1
[1]
  GI50: > 45.5 µM
  TGI: > 100 µM
[2]
  GI50: 0.0797 µM
  TGI: 0.236 µM
[3]
  GI50: 5.73 µM
  TGI: > 75.8 µM
[4]
  GI50: 97.7 µM
  TGI: > 100 µM
[5]
  GI50: > 94.3 µM
  TGI: > 100 µM
[6]
  GI50: 22.5 µM
  TGI: > 100 µM
[7]
  GI50: > 96 µM
  TGI: > 100 µM
[8]
  GI50: 1.42 µM
  TGI: 5.33 µM
[9]
  GI50: > 81.3 µM
  TGI: > 100 µM
[10]
  GI50: 10.4 µM
  TGI: > 100 µM
[11]
  GI50: 0.298 µM
  TGI: > 100 µM
[12]
  GI50: > 88.8 µM
  TGI: > 100 µM
[13]
  GI50: 22.6 µM
  TGI: > 100 µM
[14]
  GI50: 7.3 µM
  TGI: > 100 µM
[15]
  GI50: 3.21 µM
  TGI: 66.4 µM
[16]
  GI50: > 100 µM
  TGI: > 100 µM
[17]
  GI50: 4.67 µM
  TGI: > 100 µM
[18]
  GI50: 0.241 µM
  TGI: 1.12 µM
[19]
  GI50: 5.58 µM
  TGI: > 100 µM
[20]
  GI50: > 100 µM
  TGI: > 100 µM
[21]
  GI50: > 100 µM
  TGI: > 100 µM
[22]
  GI50: > 100 µM
  TGI: > 100 µM
[23]
  GI50: > 100 µM
  TGI: > 100 µM
[24]
  GI50: 0.459 µM
  TGI: > 100 µM
[25]
  GI50: > 95.8 µM
  TGI: > 100 µM
[26]
  GI50: > 100 µM
  TGI: > 100 µM
[27]
  GI50: > 94.9 µM
  TGI: > 100 µM
[28]
  GI50: 0.0885 µM
  TGI: 0.269 µM
